From patent US20250074891A1 (Anaxis Pharma Pty Ltd., priority 2021, published 2025) come the findings set out here.

What all share (conditions): Table 35
Test [1] concerns the target RIP1 (Homo sapiens (Human), UniProt Q13546). The test can be described thus: KINOMEscan binding assay, RIP1.
Test [2] addresses MLKL (full length) (Homo sapiens (Human), UniProt Q8NB16). The test can be described thus: KINOMEscan binding assay, MLKL (full length). How it is done:
(§1) Kinase assays. For most assays, kinase-tagged T7 phage strains were grown in parallel in 24-well blocks in an E. coli host derived from the BL21 strain. E. coli were grown to log-phase and infected with T7 phage from a frozen stock (multiplicity of infection=0.4) and incubated with shaking at 32° C. until lysis (90-150 minutes).
(§2) The Hill Slope was set to −1.

Test [3] addresses RIP3 (Homo sapiens (Human), UniProt Q9Y572). The experiment in a line: KINOMEscan binding assay, RIP3. The procedure: as §1, §2

MLKL (full length), sequence (Q8NB16 whole entry): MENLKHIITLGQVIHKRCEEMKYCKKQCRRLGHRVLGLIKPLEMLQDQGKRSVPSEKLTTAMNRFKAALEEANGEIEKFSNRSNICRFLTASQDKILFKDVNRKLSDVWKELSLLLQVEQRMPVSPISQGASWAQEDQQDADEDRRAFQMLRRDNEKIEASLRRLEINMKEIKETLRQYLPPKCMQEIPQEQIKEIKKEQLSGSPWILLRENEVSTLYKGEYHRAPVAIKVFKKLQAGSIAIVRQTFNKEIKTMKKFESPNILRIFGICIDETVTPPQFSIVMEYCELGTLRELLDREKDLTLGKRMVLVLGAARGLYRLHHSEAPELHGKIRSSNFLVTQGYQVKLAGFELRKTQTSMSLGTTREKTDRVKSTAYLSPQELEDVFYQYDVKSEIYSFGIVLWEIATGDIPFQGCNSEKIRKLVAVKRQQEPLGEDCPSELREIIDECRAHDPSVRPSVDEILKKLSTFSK
RIP1, sequence (Q13546 whole entry): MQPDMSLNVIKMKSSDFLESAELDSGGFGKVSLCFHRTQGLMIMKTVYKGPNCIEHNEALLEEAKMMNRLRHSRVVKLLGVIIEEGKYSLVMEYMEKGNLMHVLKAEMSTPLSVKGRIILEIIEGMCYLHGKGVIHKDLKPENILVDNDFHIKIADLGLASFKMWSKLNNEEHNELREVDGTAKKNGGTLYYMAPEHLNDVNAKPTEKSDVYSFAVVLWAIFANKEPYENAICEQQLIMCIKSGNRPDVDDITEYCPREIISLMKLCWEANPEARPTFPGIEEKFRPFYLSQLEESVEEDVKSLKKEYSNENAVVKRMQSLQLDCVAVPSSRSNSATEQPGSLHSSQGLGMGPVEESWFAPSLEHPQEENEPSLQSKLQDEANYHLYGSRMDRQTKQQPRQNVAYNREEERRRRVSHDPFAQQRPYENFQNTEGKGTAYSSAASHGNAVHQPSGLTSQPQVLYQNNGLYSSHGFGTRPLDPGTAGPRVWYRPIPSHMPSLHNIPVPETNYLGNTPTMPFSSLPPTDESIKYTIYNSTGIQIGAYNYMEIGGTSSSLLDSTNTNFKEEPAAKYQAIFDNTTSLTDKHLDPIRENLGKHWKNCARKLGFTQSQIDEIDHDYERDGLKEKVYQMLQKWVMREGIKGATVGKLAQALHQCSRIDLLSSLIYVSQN
RIP3, sequence (Q9Y572 whole entry): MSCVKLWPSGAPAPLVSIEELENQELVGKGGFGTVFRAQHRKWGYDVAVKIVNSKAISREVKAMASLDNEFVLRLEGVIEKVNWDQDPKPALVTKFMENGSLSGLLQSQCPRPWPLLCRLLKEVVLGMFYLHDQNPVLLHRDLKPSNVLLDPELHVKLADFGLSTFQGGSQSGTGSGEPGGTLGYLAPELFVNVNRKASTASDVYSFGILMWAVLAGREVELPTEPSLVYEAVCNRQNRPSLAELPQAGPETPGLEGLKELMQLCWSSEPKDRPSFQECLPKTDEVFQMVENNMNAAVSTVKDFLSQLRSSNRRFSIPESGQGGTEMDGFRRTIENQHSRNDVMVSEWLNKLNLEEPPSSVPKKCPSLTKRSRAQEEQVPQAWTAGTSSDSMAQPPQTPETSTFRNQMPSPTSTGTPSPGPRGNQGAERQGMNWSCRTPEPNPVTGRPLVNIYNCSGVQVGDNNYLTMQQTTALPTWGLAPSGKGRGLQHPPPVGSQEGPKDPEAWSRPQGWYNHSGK

Turning to `NC(=O)c1c(-c2ccc(NS(=O)(=O)C(F)F)c(Oc3ccc(F)cc3)c2)n[nH]c1Nc1cccc(C(F)(F)F)n1` [Compound 147, 3-(4-((difluoromethyl)sulfonamido)-3-(4-fluorophenoxy)phenyl)-5-((6-(trifluoromethyl)pyridine-2-yl)amino)-1H-pyrazole-4-carboxamide], the Kd in test [1] was more than 30 µM; in test [2], less than 0.01 µM; in test [3], more than 30 µM.
For the compound `NC(=O)c1c(-c2ccc(NS(=O)(=O)CC(F)(F)F)c(Oc3ccc(F)cc3)c2)n[nH]c1Nc1cccc(C(F)(F)F)n1` [Compound 148, 3-(3-(4-fluorophenoxy)-4-((2,2,2-trifluoroethyl)sulfonamido)phenyl)-5-((6-(trifluoromethyl)pyridine-2-yl)amino)-1H-pyrazole-4-carboxamide], the dissociation constant Kd in test [1] was more than 30 µM; in test [2], less than 0.01 µM; in test [3] it was more than 30 µM.
As to `CCS(=O)(=O)Nc1ccc(-c2n[nH]c(Nc3cccc(C(F)(F)F)n3)c2C(N)=O)cc1Oc1ccc(F)cc1` [Compound 149, 3-(4-(ethylsulfonamido)-3-(4-fluorophenoxy)phenyl)-5-((6-(trifluoromethyl)pyridine-2-yl)amino)-1H-pyrazole-4-carboxamide], the Kd in test [1] is more than 30 µM; in test [2] it was less than 0.01 µM; in test [3], more than 30 µM.
On to `NC(=O)c1c(-c2ccc(NS(=O)(=O)C(F)F)c(OCc3ccc(F)c(F)c3)c2)n[nH]c1Nc1cccc(C(F)(F)F)n1` [Compound 151, 3-(3-((3,4-difluorobenzyl)oxy)-4-((difluoromethyl)sulfonamido)phenyl)-5-((6-(trifluoromethyl)pyridine-2-yl)amino)-1H-pyrazole-4-carboxamide], for which the Kd in test [1] was more than 30 µM; in test [2] it was less than 0.01 µM; in test [3], more than 30 µM.
For `CCS(=O)(=O)Nc1ccc(-c2n[nH]c(Nc3cnccn3)c2C(N)=O)cc1OC1(c2ccccc2)CC1` [Compound 152, 3-(4-(ethylsulfonamido)-3-(1-phenylcyclopropoxy)phenyl)-5-(pyrazin-2-ylamino)-1H-pyrazole-4-carboxamide], the Kd in test [1] is more than 30 µM; in test [2], less than 0.01 µM; in test [3] it was more than 30 µM.
As to `NC(=O)c1c(-c2ccc(NS(=O)(=O)CC(F)(F)F)cc2)n[nH]c1Nc1ccc(C(F)(F)F)cn1` [Compound 153, 3-(4-((2,2,2-trifluoroethyl)sulfonamido)phenyl)-5-((5-(trifluoromethyl)pyridine-2-yl)amino)-1H-pyrazole-4-carboxamide], the Kd in test [1] was more than 30 µM; in test [2], less than 0.01 µM; in test [3] it was more than 30 µM.
`C[C@H](Oc1cc(-c2n[nH]c(Nc3ccccn3)c2C(N)=O)ccc1NS(=O)(=O)CC(F)(F)F)c1ccc(F)cc1` [Compound 154, (S)-3-(3-(1-(4-fluorophenyl)ethoxy)-4-((2,2,2-trifluoroethyl)sulfonamido)phenyl)-5-(pyridine-2-ylamino)-1H-pyrazole-4-carboxamide]: the results for the dissociation constant Kd in test [1], in test [2] and in test [3] were more than 30 µM, less than 0.01 µM and more than 30 µM, respectively.
In the case of `Cc1cnc(Nc2[nH]nc(-c3ccc(NS(=O)(=O)CC(F)(F)F)c(OCc4ccc(F)c(Cl)c4)c3)c2C(N)=O)cn1` [Compound 155, 3-(3-((3-chloro-4-fluorobenzyl)oxy)-4-((2,2,2-trifluoroethyl)sulfonamido)phenyl)-5-((5-methylpyrazin-2-yl)amino)-1H-pyrazole-4-carboxamide], the Kd was more than 30 µM in test [1], less than 0.01 µM in test [2] and more than 30 µM in test [3].
Take `CCS(=O)(=O)Nc1ccc(-c2n[nH]c(Nc3cnccn3)c2C(N)=O)cc1OCc1ccc(F)cn1` [Compound 156, 3-(4-(ethylsulfonamido)-3-((5-fluoropyridin-2-yl)methoxy)phenyl)-5-(pyrazin-2-ylamino)-1H-pyrazole-4-carboxamide]: the results for the dissociation constant (Kd) in test [1], in test [2] and in test [3] were more than 30 µM, less than 0.01 µM and more than 30 µM, respectively.
For the compound `COc1cnc(Nc2[nH]nc(-c3ccc(NS(=O)(=O)CC(F)(F)F)c(OCc4ccc(Cl)cc4)c3)c2C(N)=O)cn1` [Compound 157, 3-(3-((4-chlorobenzyl)oxy)-4-((2,2,2-trifluoroethyl)sulfonamido)phenyl)-5-((5-methoxypyrazin-2-yl)amino)-1H-pyrazole-4-carboxamide], the results for the Kd in test [1], in test [2] and in test [3] were more than 30 µM, less than 0.01 µM and more than 30 µM, respectively.
In the case of `CCS(=O)(=O)Nc1ccc(-c2n[nH]c(Nc3cnc(C4CC4)cn3)c2C(N)=O)cc1` [Compound 158, 5-((5-cyclopropylpyrazin-2-yl)amino)-3-(4-(ethylsulfonamido)phenyl)-1H-pyrazole-4-carboxamide], the values for the Kd in test [1], in test [2] and in test [3] were more than 30 µM, less than 0.01 µM and more than 30 µM, respectively.
On to `COc1ccc(Nc2[nH]nc(-c3ccc(NS(=O)(=O)CC(F)(F)F)c(OCc4ccc(F)cc4)c3)c2C(N)=O)cn1` [Compound 159, 3-(3-((4-fluorobenzyl)oxy)-4-((2,2,2-trifluoroethyl)sulfonamido)phenyl)-5-((6-methoxypyridin-3-yl)amino)-1H-pyrazole-4-carboxamide], for which the Kd in test [1] was more than 30 µM; in test [2], less than 0.01 µM; in test [3], more than 30 µM.
For `NC(=O)c1c(-c2ccc(NS(=O)(=O)CC(F)(F)F)c(OCc3ccc(F)c(F)c3)c2)n[nH]c1Nc1ccccn1` [Compound 160, 3-(3-((3,4-difluorobenzyl)oxy)-4-((2,2,2-trifluoroethyl)sulfonamido)phenyl)-5-(pyridine-2-ylamino)-1H-pyrazole-4-carboxamide], the Kd was more than 30 µM in test [1], less than 0.01 µM in test [2] and more than 30 µM in test [3].
Turning to `NC(=O)c1c(-c2ccc(NS(=O)(=O)CC(F)(F)F)c(OC3(c4ccccc4)CC3)c2)n[nH]c1Nc1cnccn1` [Compound 161, 3-(3-(1-phenylcyclopropoxy)-4-((2,2,2-trifluoroethyl)sulfonamido)phenyl)-5-(pyrazin-2-ylamino)-1H-pyrazole-4-carboxamide], the Kd was more than 30 µM in test [1], less than 0.01 µM in test [2] and more than 30 µM in test [3].
Regarding `Cc1cnc(Nc2[nH]nc(-c3ccc(NS(=O)(=O)CC(F)(F)F)c(OCc4ccc(Cl)cc4)c3)c2C(N)=O)cn1` [Compound 162, 3-(3-((4-chlorobenzyl)oxy)-4-((2,2,2-trifluoroethyl)sulfonamido)phenyl)-5-((5-methylpyrazin-2-yl)amino)-1H-pyrazole-4-carboxamide], the Kd in test [1] is more than 30 µM; in test [2], less than 0.01 µM; in test [3], more than 30 µM.
Regarding `Cc1cnc(Nc2[nH]nc(-c3ccc(NS(=O)(=O)CC(F)(F)F)c(OCc4ccc(F)cc4)c3)c2C(N)=O)cn1` [Compound 163, 3-(3-((4-fluorobenzyl)oxy)-4-((2,2,2-trifluoroethyl)sulfonamido)phenyl)-5-((5-methylpyrazin-2-yl)amino)-1H-pyrazole-4-carboxamide], the figures for the Kd in test [1], in test [2] and in test [3] were more than 30 µM, less than 0.01 µM and more than 30 µM, respectively.
Take `C[C@H](Oc1cc(-c2n[nH]c(Nc3cnccn3)c2C(N)=O)ccc1NS(=O)(=O)CC(F)(F)F)c1ccc(F)cc1` [Compound 164, (S)-3-(3-(1-(4-fluorophenyl)ethoxy)-4-((2,2,2-trifluoroethyl)sulfonamido)phenyl)-5-(pyrazin-2-ylamino)-1H-pyrazole-4-carboxamide]: the Kd in test [1] is more than 30 µM; in test [2], less than 0.01 µM; in test [3], more than 30 µM.
With `NC(=O)c1c(-c2ccc(NS(=O)(=O)CC(F)(F)F)c(OCc3ccc(Cl)c(F)c3)c2)n[nH]c1Nc1cnccn1` [Compound 165, 3-(3-((4-chloro-3-fluorobenzyl)oxy)-4-((2,2,2-trifluoroethyl)sulfonamido)phenyl)-5-(pyrazin-2-ylamino)-1H-pyrazole-4-carboxamide], the Kd in test [1] was more than 30 µM; in test [2] it was less than 0.01 µM; in test [3], more than 30 µM.
For the compound `CCS(=O)(=O)Nc1ccc(-c2n[nH]c(Nc3cnccn3)c2C(N)=O)cc1OCc1ccc(Cl)c(F)c1` [Compound 166, 3-(3-((4-chloro-3-fluorobenzyl)oxy)-4-(ethylsulfonamido)phenyl)-5-(pyrazin-2-ylamino)-1H-pyrazole-4-carboxamide], the values for the dissociation constant Kd in test [1], in test [2] and in test [3] were more than 30 µM, less than 0.01 µM and more than 30 µM, respectively.
For `NC(=O)c1c(-c2ccc(NS(=O)(=O)CC(F)(F)F)c(Oc3cccc(F)c3)c2)n[nH]c1Nc1cnccn1` [Compound 167, 3-(3-(3-fluorophenoxy)-4-((2,2,2-trifluoroethyl)sulfonamido)phenyl)-5-(pyrazin-2-ylamino)-1H-pyrazole-4-carboxamide], the Kd is more than 30 µM in test [1], less than 0.01 µM in test [2] and more than 30 µM in test [3].
Regarding `NC(=O)c1c(-c2ccc(NS(=O)(=O)CC(F)(F)F)c(Oc3ccc(Cl)cc3)c2)n[nH]c1Nc1cnccn1` [Compound 168, 3-(3-(4-chlorophenoxy)-4-((2,2,2-trifluoroethyl)sulfonamido)phenyl)-5-(pyrazin-2-ylamino)-1H-pyrazole-4-carboxamide], the figures for the Kd in test [1], in test [2] and in test [3] were more than 30 µM, less than 0.01 µM and more than 30 µM, respectively.
In the case of `NC(=O)c1c(-c2ccc(NS(=O)(=O)C3CC3)c(OCc3ccc(F)cc3)c2)n[nH]c1Nc1cnccn1` [Compound 169, 3-(4-(cyclopropanesulfonamido)-3-((4-fluorobenzyl)oxy)phenyl)-5-(pyrazin-2-ylamino)-1H-pyrazole-4-carboxamide], the equilibrium dissociation constant (Kd) was more than 30 µM in test [1], less than 0.01 µM in test [2] and more than 30 µM in test [3].

Usually Kd stands for the equilibrium constant for the complex coming apart. High values mean weaker binding, low ones tighter binding.
